Laboratory results reported in patent publication US5358947A, “Angiotensin II receptor blocking 2,3-substituted pyrazolo[1,5-a]-1,3,5-triazin-4(3H)-ones” (American Cyanamid Company, priority 1993, dated 1994).
Several values for one entry are separate records, joined by “and”; a condition that tells them apart may be missing. Equal values may be shown once.

Test system: ANGIOTENSIN II (AII) VASOPRESSOR RESPONSE
Assay: AII Challenge: angiotensin II (AII) vasopressor response in conscious rats
Type: in vivo
Design: Response After AII / Change / Average Change: unit not given here
Conditions: for Response After AII / Change / Control Before AII: individual rat; for Control Before AII: in mmHg (unit assumed); for % Inhibition / Average Change: n = 2
From the text: By administering a compound of this invention to a rat, and then challenging with angiotensin II, a blockage of the vasopressor response is realized.
Conscious Male Okamoto-Aoki SHR, 16-20 weeks old, weighing approximately 330 g are purchased from Charles River Labs (Wilmington, Mass.). Conscious rats are restrained in a supine position with elastic tape. The area at the base of the tail is locally anesthetized by subcutaneous infiltration with 2% procaine. The ventral caudal artery and vein are isolated, and a cannula made of polyethylene (PE) 10-20 tubing (fused together by heat) is passed into the lower abdominal aorta and vena cava, respectively. The cannula is secured, heparinized (1,000 I.U./ml), sealed and the wound is closed. The animals are placed in plastic restraining cages in an upright position. The cannula is attached to s Statham P23Db pressure transducer, and pulsatile blood pressure is recorded to 10-15 minutes with a Gould Brush recorder. (Chan et al., (Drug Development Res., 18:75-94, 1989).
Angiotensin II (human sequence, Sigma Chem. Co., St. Louis, Mo.) of 0.05 and 0.1 ug/kg i.v. is injected into all rats (predosing response.). Then a test compound, vehicle or a known angiotensin II antagonist is administered i.v., i.p. or orally to each set of rats. The two doses of angiotensin II are given to each rat again at 30, 60, 90, 120, 180, 240 and 300 minutes post dosing the compound or vehicle. The vasopressor response of angiotensin II by a compound is calculated using the vasopressor response (increase in systolic blood pressure) of angiotensin II of each rat predosing the compound as 100%. A compound is considered active if at 30 mg/kg i.v. it antagonized at least 50% of the response.

[1] = 10 mg/kg i.v., AII 0.05 mcg/kg, 30 min post dose
[2] = 10 mg/kg i.v., AII 0.05 mcg/kg, 30 min post dose, listed as Ex. 10
[3] = 10 mg/kg i.v., AII 0.05 mcg/kg, 60 min post dose
[4] = 10 mg/kg i.v., AII 0.05 mcg/kg, 60 min post dose, listed as Ex. 10
[5] = 10 mg/kg i.v., AII 0.1 mcg/kg, 30 min post dose
[6] = 10 mg/kg i.v., AII 0.1 mcg/kg, 30 min post dose, listed as Ex. 10
[7] = 10 mg/kg i.v., AII 0.1 mcg/kg, 60 min post dose
[8] = 10 mg/kg i.v., AII 0.1 mcg/kg, 60 min post dose, listed as Ex. 10
[9] = 20 mg/kg i.v., AII 0.05 mcg/kg, 90 min post dose
[10] = 20 mg/kg i.v., AII 0.05 mcg/kg, 90 min post dose, listed as Ex. 10
[11] = 20 mg/kg i.v., AII 0.05 mcg/kg, 120 min post dose
[12] = 20 mg/kg i.v., AII 0.05 mcg/kg, 120 min post dose, listed as Ex. 10
[13] = 20 mg/kg i.v., AII 0.05 mcg/kg, 180 min post dose
[14] = 20 mg/kg i.v., AII 0.05 mcg/kg, 180 min post dose, listed as Ex. 10
[15] = 20 mg/kg i.v., AII 0.05 mcg/kg, 240 min post dose
[16] = 20 mg/kg i.v., AII 0.05 mcg/kg, 240 min post dose, listed as Ex. 10
[17] = 20 mg/kg i.v., AII 0.05 mcg/kg, 300 min post dose, listed as Ex. 10
[18] = 20 mg/kg i.v., AII 0.05 mcg/kg, 300 min post dose
[19] = 20 mg/kg i.v., AII 0.1 mcg/kg, 90 min post dose
[20] = 20 mg/kg i.v., AII 0.1 mcg/kg, 90 min post dose, listed as Ex. 10
[21] = 20 mg/kg i.v., AII 0.1 mcg/kg, 120 min post dose
[22] = 20 mg/kg i.v., AII 0.1 mcg/kg, 120 min post dose, listed as Ex. 10
[23] = 20 mg/kg i.v., AII 0.1 mcg/kg, 180 min post dose, listed as Ex. 10
[24] = 20 mg/kg i.v., AII 0.1 mcg/kg, 180 min post dose
[25] = 20 mg/kg i.v., AII 0.1 mcg/kg, 240 min post dose, listed as Ex. 10
[26] = 20 mg/kg i.v., AII 0.1 mcg/kg, 240 min post dose
[27] = 20 mg/kg i.v., AII 0.1 mcg/kg, 300 min post dose
[28] = 20 mg/kg i.v., AII 0.1 mcg/kg, 300 min post dose, listed as Ex. 10

Structure (SMILES): CCCCc1nc2cc(-c3ccccc3)nn2c(=O)n1Cc1ccc(-c2ccccc2-c2nnn[nH]2)cc1 [Example 10, 2-Butyl-7-phenyl-3-[[2'-(1H-tetrazol-5-yl)[1,1'-biphenyl]-4-yl]methyl]pyrazolo[1,5-a]-1,3,5-triazin-4(3H)-one]
- Response After AII [1]: 235
- Change [2]: 15 and 5
- Response After AII [2]: 215
- Control Before AII [2]: 220 and 210
- % Inhibition [1]: 80%
- Average Change [1]: 10
- Control Before AII [3]: 210
- Change [4]: 45 and 15
- Response After AII [4]: 255 and 230
- Control Before AII [4]: 215
- % Inhibition [3]: 40%
- Average Change [3]: 30
- Response After AII [5]: 245
- Control Before AII [5]: 210
- Change [6]: 35 and 5
- Response After AII [6]: 215
- % Inhibition [5]: 60%
- Average Change [5]: 20
- Response After AII [7]: 250
- Change [8]: 40 and 10
- Response After AII [8]: 215
- Control Before AII [8]: 210 and 205
- % Inhibition [7]: 50%
- Average Change [7]: 25
- Change [9]: 10
- Response After AII [10]: 205 and 215
- Control Before AII [10]: 195 and 205
- % Inhibition [9]: 80%
- Average Change [9]: 10
- Response After AII [11]: 210
- Change [12]: 10 and 20
- Response After AII [12]: 185
- Control Before AII [12]: 175 and 190
- % Inhibition [11]: 70%
- Average Change [11]: 15
- Control Before AII [13]: 185
- Change [14]: 10 and 25
- Response After AII [14]: 195 and 210
- % Inhibition [13]: 65%
- Average Change [13]: 17.5
- Response After AII [15]: 190
- Change [16]: 10 and 5
- Response After AII [16]: 205
- Control Before AII [16]: 195 and 185
- % Inhibition [15]: 85%
- Average Change [15]: 7.5
- Change [17]: 30 and 15
- Response After AII [17]: 220 and 195
- Control Before AII [17]: 190 and 180
- % Inhibition [18]: 55%
- Average Change [18]: 22.5
- Response After AII [19]: 210
- Change [20]: 10 and 0
- Response After AII [20]: 215
- Control Before AII [20]: 205 and 210
- % Inhibition [19]: 90%
- Average Change [19]: 5
- Response After AII [21]: 200
- Change [22]: 5 and 10
- Response After AII [22]: 205
- Control Before AII [22]: 200 and 190
- % Inhibition [21]: 85%
- Average Change [21]: 7.5
- Change [23]: 20 and 15
- Response After AII [23]: 210 and 200
- Control Before AII [23]: 190 and 185
- % Inhibition [24]: 65%
- Average Change [24]: 17.5
- Change [25]: 17 and 10
- Response After AII [25]: 217 and 195
- Control Before AII [25]: 200 and 185
- % Inhibition [26]: 73%
- Average Change [26]: 13.5
- Change [27]: 30
- Response After AII [27]: 235
- Response After AII [28]: 205
- Control Before AII [28]: 205 and 175
- % Inhibition [27]: 40%
- Average Change [27]: 30
